Patent US20090068243A1, “Novel formulations for delivery of antiviral peptide therapeutics” (priority 2007, published 2009)

Key:
[1] = Helicity by circular dichroism (CD); format: physicochemical; settings: usually percent helicity at 10 μM, 25° C.
Experimental: (§1) Assessment of biophysical parameters included measurement of helicity and thermal stability. Helicity was assessed by circular dichroism (“CD”) as follows. Briefly, CD spectra were obtained using a spectrometer equipped with a thermoelectric temperature controller. The spectra was obtained at 25° C. with 0.5 nanometer (nm) steps from 200 to 260 nm, with a 1.5 nm bandwith, and a typical averaging time of 4 seconds/step. After the cell/buffer blank was subtracted, spectra were smoothed using a third-order least-squares polynomial fit with a conservative window size to give random residuals. Raw ellipticity values were converted to mean residue ellipticity using standard methods, and plotted was the wavelength (from 200 to 260 nm) versus [θ]×10−3 (degrees cm^2/dmol). Percent helicity values were then calculated using standard methods (usually expressed as percent helicity at 10 μM, 25° C.). Assessment of thermal stability was performed by monitoring the change in CD signal at 222 nm as temperature was raised in 2° C. steps, with 1 minute equilibration times. The stability for each sample (e.g., HIV fusion inhibitor peptide), as represented by the Tm value, is the temperature corresponding to the maximum value of the first derivative of the thermal transition.

[2] = Stability in aqueous solution (PBS), peptide remaining in solution by HPLC; format: physicochemical; settings: 10 mg/ml in PBS, about pH 7.3 to 7.5, 37° C., time point of 1 week
[3] = Thermal stability (Tm) by CD signal at 222 nm; format: physicochemical; settings: CD at 222 nm, maximum of first derivative of thermal transition
Experimental: as §1

[4] = Intravenous pharmacokinetics in cynomolgus monkeys; format: in vivo, cynomolgus monkeys (Macaca fasicularis)
Experimental: For determining pharmacokinetic properties, an HIV fusion inhibitor peptide or a base sequence from which an HIV fusion inhibitor peptide is derived was dosed intravenously in cynomolgus monkeys (Macaca fasicularis) (other animal models may be used for determining pharmacokinetic properties, as known in the art). At various times post-dose, blood samples were drawn and plasma isolated by centrifugation. Plasma samples were stored frozen until analysis by LC-MS (liquid chromatography/mass spectrometry) in the electrospray, positive-ion mode. An HIV fusion inhibitor or base sequence was eluted from a C18 or C8 HPLC column with a gradient of acetonitrile in a buffer of 10 mM ammonium acetate, pH 6.8. At the time of analysis, plasma samples were deproteinated with either two or three volumes of acetonitrile containing 0.5% formic acid. Duplicate calibration standards in cynomolgus plasma samples were prepared at the same time as the samples and analyzed before and after the samples containing either HIV fusion inhibitor peptide or base sequence. Pharmacokinetic properties were calculated from the plasma concentration-time data using either mono-exponential or bi-exponential mathematical models. Models were derived by non-linear least squares optimization. A 1/C^2 weighting of concentrations was used. The following equations were used to calculate area-under the plasma concentration vs. time curve (AUC), total body clearance (Cl), and terminal elimination half-life (t ½).
Where A and B are intercepts and a and b are the rate constants of the exponential equations describing the distribution and elimination phases, respectively. When mono-exponential models were used, the “A” and “a” properties were eliminated.
Cl=Dose/AUC (expressed in L/K/hr)
t½=0.6903/b (expressed in hr)

HIV-IIIB = settings: 50% reduction in infectious virus titer
Source text: Assessment of biological properties included measurement of antiviral activity against HIV-1 strains. […] These assays score for reduction of infectious virus titer employing the indicator cell lines MAGI or the CCR5 expressing derivative cMAGI. Both cell lines exploit the ability of HIV-1 tat to transactivate the expression of a β-galactosidase reporter gene driven by the HIV-LTR. The β-gal reporter has been modified to localize in the nucleus and can be detected with the X-gal substrate as intense nuclear staining within a few days of infection. The number of stained nuclei can thus be interpreted as equal to the number of infectious virions in the challenge inoculum if there is only one round of infection prior to staining. […] In the MAGI and cMAGI assays, a 50% reduction in infectious titer (Vn/Vo=0.5) is significant, and provides the primary cutoff value for assessing antiviral activity (“IC50” is defined as the concentration of active ingredient resulting in a 50% reduction in infectious virus titer). […] The number of infected cells for each control and peptide dilution was determined with the CCD-imager, and then the IC50 was calculated (expressed in μg/ml).

## Ac-TTWEAWDRAIAEYAARIEALLRALQEQQEKNEAALREL-NH2 [SEQ ID NO:9, TTWEAWDRAIAEYAARIEALLRALQEQQEKNEAALREL]
[1]
  Helicity (%): 61%
[2]
  peptide remaining detectable in solution: ≥ 90%
[3]
  Tm (° C.): 62 °C
[4]; comment on Table 2
  biological half-life relative to base sequence, in words: increased biological half-life
[4]; cynomolgus monkey, plasma, iv, dosed intravenously
  clearance: < 0.333 mL/min/kg
[4]; cynomolgus monkey, plasma, iv, dosed intravenously, read-out: Half-life (t ½; hr) (converted)
  half-life: 12 h
HIV-IIIB
  Antiviral Activity (μg/ml) HIV-IIIB IC50: <0.10 µg/mL
